Results on one compound are retold here after patent US20040058947A1, “Composition for the prevention or treatment of learning disorders in children suffering from attention deficit/hyperactive disorder” (priority 2001, published 2004).

In experiment [1] the test system is cortical neurons isolated from mouse foetuses. The experiment in a line: Effect on glutamate-induced cortical neuronal toxicity. Format: cell-based. Particulars: monosodium glutamate 1 nmol·L^−1; L-carnitine/acetyl L-carnitine 5 nmol·L^−1, huperzine A 10 nmol·L^−1, added half an hour before glutamate; glutamate alone 20%. Here is the method: As is known , persistent stimulation of glutamate receptors induces a neurotoxic effect leading to the death of neuronal cells: this is one of the mechanisms regarding as being responsible for the pathogenesis of Alzheimer's disease. The aim of these tests was to observe whether preincubation of cortical neuronal cells with L-carnitine+acetyl L-carnitine carnitine alone or in combination with huperzine A may lead to a reduction of glutamate-induced toxicity and to greater survival of neuronal cells. In these tests, cortical neurons isolated from mouse foetuses were used, according to the method described by Lin [Lin L., J. Nanjing Univ. (Natural Science Edition) 31:514, 1995—Lin L., Acta Pharmacol. Sinica, 17:221, 1996]. After isolating the cells, they were suspended on plates with a density of 6.4×10^8 cells/m^2 surface. To prevent proliferation of non-neuronal cells, […]. […]
The solutions of L-carnitine/acetyl L-carnitine or huperzine A were added to the Locke solution half an hour before monosodium glutamate. […] according to the procedure disclosed by Green (Green L. M., J. Immunol. Methods, 70:257, 1984).

For experiment [2], the system named is glutamate-induced spontaneous motility in mice. The experiment in a line: Glutamate excitability tests (hypermotility after intracerebral glutamate). Format: in vivo. Particulars: treatment one hour prior, huperzine A 0.05 mg/kg, L-carnitine 200 mg/kg + acetyl L-carnitine 50 mg/kg. The source says:
Excitatory amino acids such as glutamate, if administered by intracerebral injection, produce a series of behavioural effects, the most evident of which is hypermotility.
To evaluate the effect of huperzine A and L-carnitine/acetyl L-carnitine and of a combination of these, mice received intracerebral injections of increasing doses of glutamate according to the method described by Lama (Lama E., Acta Pharmacol. Sinica, 9:252, 1988). The increase in spontaneous motility of these animals placed in a box with transparent walls was then evaluated by means of a photoelectric cell which recorded the number of passes for a period of five minutes. The motility test was conduced both in control animals and in animals treated one hour prior to injection of glutamate with huperzine A and with L-carnitine/acetyl L- carnitine and with a combination of these compounds. The results of these tests (see Table 2) indicate that treatment with huperzine A reduces the increase in motility induced by glutamate in mice, but that the greastest reduction is that obtained by administration of the combination of huperzine A and L-carnitine/acetyl L-carnitine.

Regarding `C/C=C1\[C@H]2C=C(C)C[C@]1(N)c1ccc(=O)[nH]c1C2` [huperzine A], the “survival rate of neuronal cells” value in experiment [1] was 30%. Also, the “N. passes in 5 min observation” value in experiment [2] (Glutamate 1 ng/mouse intracerebral, glutamate control 241 ± 35) is listed as 226 ± 24; in experiment [2] (Glutamate 5 ng/mouse intracerebral, glutamate control 364 ± 39), 296 ± 16.
